Reference: patent publication US7371734B2, “Oligonucleotide compositions and their use for the modulation of immune responses” (Bioniche Life Sciences Inc., priority 2002, dated 2008)
Marks after values point to notes of the source that are not given here.

Legend:
Format in all cases: cell-based
[1] = test system: Human dendritic cells; assay: Induction of IFN-gamma production by DC (ELISA); conditions: 100 μg, 48 hours
Protocol: (§1) Human dendritic cells were obtained from Clonetics (San Diego, Calif., USA) and were cultured in the medium recommended by Clonetics. DC were obtained from three different individuals (see Table 1). Major histocompatability typing was performed on each of these individuals and several of the HLA (human leukocyte antigens) types are shown.
DC were seeded in 1.0 ml at 1.0×10^5 cells/ml in 6-well flat-bottomed tissue culture plates for 48 hours with 100 μg of6 base N1A, N1B, N2A, N2B, N3A, N3B, N4A, N4B, N5A, N5B, N6A, N6B, N7A or N7B polynucleotides. Production of IFN-gamma was determined in 100 μl of culture supernatant using a commercial ELISA (BioSource) after 48 hours of incubation. Results are expressed as the “fold” (x) increase in IFN-gamma production by treated DC compared to control cells.

[2] = test system: Human dendritic cells; assay: Increase in cell size and granularity of DC (flow cytometry); conditions: 100 μg polynucleotide, 48 hours
Protocol: as §1
DC were seeded in 1.0 ml at 1.0×10^5 cells/ml in 6-well flat-bottomed tissue culture plates for 48 hours with 100 μg of 6 base N1A, N1B, N2A, N2B, N3A, N3B, N4A, N4B, N5A, N5B, N6A, N6B, N7A or N7B polynucleotides. Cell size (FCS: forward side scatter) and granularity (S SC: side light scatter) were determined by flow cytometry using a FACSCalibur and analyzed using the CELLQuest Pro software (both from Becton-Dickinson, San Diego, Calif., USA). Percentage of DC showing a FCS>500 units and a SSC>400 units have been determined after treatment with 3-OH, 5-OH polynucleotides for DC isolated from three different individuals.

[3] = test system: Human dendritic cells; assay: Induction of IL-12 production by DC (ELISA); conditions: 100 μg, 48 hours
Protocol: as §1
DC were seeded in 1.0 ml at 1.0×10^5 cells/ml in 6-well flat-bottomed tissue culture plates for 48 hours with 100 μg of 6 base N1A, N1B, N2A, N2B, N3A, N3B, N4A, N4B, N5A, N5B, N6A, N6B, N7A or N7B polynucleotides. Production of IL-12 was determined in 100 μl of culture supernatant using a commercial ELISA (BioSource) after 48 hours of incubation. Results are expressed as the “fold” (x) increase in IL-12 production by treated DC compared to control cells.

[4] = test system: Human dendritic cells; assay: CD86 levels at the DC cell surface (flow cytometry); conditions: 100 μg, 48 hours
Protocol: as §1
(§2) DC from individuals B and C were seeded in 1.0 ml at 1.0×10^5 cells/ml in 6-well flat-bottomed tissue culture plates for 48 hours with 100 μg of 6 base N1A, N1B, N2A, N2B, N3A, N3B, N4A, N4B, N5A, N5B, N6A, N6B, N7A or N7B polynucleotides. The level of CD86 at the cell surface was determined after 48 hours of incubation by flow cytometry using a PE-conjugated monoclonal antibody directed to CD86 (Serotec) and analyzed by CELLQuest Pro. Results are expressed as the percentage of CD86^hi DC following treatment.

[5] = test system: Human dendritic cells; assay: CD40 levels at the DC cell surface (flow cytometry); conditions: 100 μg, 48 hours
Protocol: as §1
DC from individuals B and C were seeded in 1.0 ml at 1.0×10^5 cells/ml in 6-well flat-bottomed tissue culture plates for 48 hours with 100 μg of 6 base N1A, N1B, N2A, N2B, N3A, N3B, N4A, N4B, N5A, N5B, N6A, N6B, N7A or N7B polynucleotides. The level of CD40 at the cell surface was determined after 48 hours of incubation by flow cytometry (FACSCalibur system) using a FITC-conjugated monoclonal antibody directed to CD40 and analyzed by CELLQuest Pro (all from Becton Dickinson). Results are expressed as the percentage of CD40^hi DC following treatment. The term “CD40^hi” refers to a population of cells identified by flow cytometry as having higher than baseline expression of CD40.

[6] = test system: Human dendritic cells; assay: Induction of IL-12 by sequences plus GM-CSF (ELISA); conditions: 100 μg, 48 hours
Protocol: as §1
DC from the individual B were seeded in 1.0 ml at 1.0×10^5 cells/ml in 6-well flat-bottomed tissue culture plates for 48 hours with 500 units of human recombinant GM-CSF (Clonetics) and 100 μg of 6 base polynucleotide N1A or polynucleotide N7A. Production of IL-12 was determined in 100 μl of culture supernatant using a commercial ELISA (BioSource) after 48 hours of incubation. Results are expressed as the “fold” (x) increase in IL-12 production by treated DC compared to control cells in absence or presence of recombinant GM-CSF.

[7] = test system: Human dendritic cells; assay: CD80 levels at the DC cell surface (flow cytometry); conditions: 100 μg, 48 hours
Protocol: as §1
as §2, with “CD80” for “CD86”, “FITC-conjugated” for “PE-conjugated”, “CD80 (Serotec, Oxford, U.K.)” for “CD86 (Serotec)”, “CELLQuest.” for “CELLQuest Pro.”, “CD80^hi” for “CD86^hi”

[8] = test system: Human dendritic cells; assay: MHC-II levels at the DC cell surface (flow cytometry); conditions: DC from individual B; 100 μg, 48 hours
Protocol: as §1
as §2, with “individual” for “individuals”, “B” for “B and C”, “N3B,” for “N3B, N4A, N4B,”, “MHC II” for “CD86”, “FITC-conjugated” for “PE-conjugated”, “MHC II^hi” for “CD86^hi”

[9] = test system: Human dendritic cells; assay: Induction of IL-1beta production by DC (ELISA); conditions: 100 μg, 48 hours
Protocol: as §1
DC were seeded in 1.0 ml at 1.0×10^5 cells/ml in 6-well flat-bottomed tissue culture plates for 48 hours with 100 μg of 6 base N1A, N1B, N2A, N2B, N3A, N3B, N4A, N4B, N5A, N5B, N6A, N6B, N7A or N7B polynucleotides. Production of IL-1beta was determined in 100 μl of culture supernatant using a commercial ELISA (BioSource, Camarillo, Calif., USA) after 48 hours of incubation. Results are expressed as the “fold” (x) increase in IL-1beta production by treated DC compared to control cells.

[10] = test system: Human dendritic cells; assay: Endocytosis of FITC-dextran by DC; conditions: DC from individual B, 100 μg, 24 hours, untreated control = 100
Protocol: as §1
DC from individual B were seeded in 1.0 ml at 1.0×10^5 cells/ml in 6-well flat-bottomed tissue culture plates for 24 hours with 1 mg/ml of FITC-dextran (20 kDa; Sigma-Aldrich) in the absence or presence of 100 μg of 6 base N2A, N2B, N3A, N3B, N5A, N5B, and N6B polynucleotides at 4° C. (control cell surface binding of FITC-dextran) and 37° C. (to assess endocytosis). Cells were washed three times with ice-cold phosphate buffered saline and analyzed by flow cytometry using CELLQuest Pro. Results are expressed as relative endocytic rate (normalized Δ Mean Fluorescence Value (Δ MFV)). Δ MFV=MFV of DC exposed to FITC-dextran at 37° C.−MFV of DC exposed to FITC-dextran at 4° C. Δ MFV=(ΔMFVsequence/ΔMFVcontrol)×100.

Substance | IFN-gamma production by DC (fold increase compared to untreated DC) ([1]; DC isolated from individual A) [fold] | IFN-gamma production by DC (fold increase compared to untreated DC) ([1]; DC isolated from individual C) [fold] | Percentage of DC showing a FCS > 500 units and a SSC > 400 units ([2]; DC isolated from individual A) [%] | Percentage of DC showing a FCS > 500 units and a SSC > 400 units ([2]; DC isolated from individual C) [%] | IL-12 production by DC (fold increase compared to untreated DC) ([3]; DC isolated from individual A) [fold] | IL-12 production by DC (fold increase compared to untreated DC) ([3]; DC isolated from individual C) [fold] | The percentage of CD86^hi DC following treatment ([4]; DC from individual C) | The percentage of CD40^hi DC following treatment ([5]; DC from individual C) | The percentage of CD80^hi DC following treatment ([7]; DC from individual B) | The percentage of CD80^hi DC following treatment ([7]; DC from individual C) | The percentage of MHC-II^hi DC following treatment [8] | IL-1beta production by DC (fold increase compared to untreated DC) ([9]; DC isolated from individual A) [fold] | IL-1beta production by DC (fold increase compared to untreated DC) ([9]; DC isolated from individual C) [fold] | Relative endocytic rate (normalized Δ MFV) [10] | IFN-gamma production by DC (fold increase compared to untreated DC) ([1]; DC isolated from individual B) [fold] | Percentage of DC showing a FCS > 500 units and a SSC > 400 units ([2]; DC isolated from individual B) [%] | IL-12 production by DC (fold increase compared to untreated DC) ([3]; DC isolated from individual B) [fold] | The percentage of CD86^hi DC following treatment ([4]; DC from individual B) | The percentage of CD40^hi DC following treatment ([5]; DC from individual B) | IL-1beta production by DC (fold increase compared to untreated DC) ([9]; DC isolated from individual B) [fold] | further results
5′GGGCGG3′ [N7A] (DNA, all phosphodiester, methylation of C not given here) | 1.0 | 1.0 | 8 | 30 | 1.0 | 0.9 | 34% | 23% | 23** % | 22** % | 21% | 1.1 | 1.0 | – | – | – | – | – | – | – | IL-12 production by DC from the individual B (fold increase compared to untreated DC) ([6]; +GM-CSF (500 units human recombinant)): 11.7 fold; IL-12 production by DC from the individual B (fold increase compared to untreated DC) ([6]; w/o GM-CSF): 9.6 fold
5′GGGGGG3′ [N5B] | 3.5 | 1.5 | 53 | 23 | 7.5 | 15.0 | 31** % | 15% | 3% | 10% | 18% | 5.0 | 3.7 | 151 | 5.0 | 16 | 17.8 | 26** % | 21% | 7.5 | –
5′GGTGGG3′ [N2A] | 1.0 | 1.0 | 6 | 21 | 7.9 | 1.6 | 26% | 17% | 25** % | 18% | 42** % | 1.0 | 1.0 | 334 | 1.1 | 14 | 6.8 | 16% | 27** % | 1.0 | –
5′GGTGGG3′ [N2B] | 1.2 | 1.0 | 42 | 50 | 1.3 | 2.5 | 53** % | 37** % | 7% | 8% | 30% | 1.2 | 1.0 | 148 | 1.2 | 38 | 6.0 | 31** % | 22% | 1.4 | –
